Patent publication US20220401514A1, “ANTIMICROBIAL, BACTERIOPHAGE-DERIVED POLYPEPTIDES AND THEIR USE AGAINST GRAM-NEGATIVE AND ACID-FAST BACTERIA” (CONTRAFECT CORPORATION, priority 2019, published 2022)
Converted amounts (≈) assume the structure as drawn.

Legend:
[1] = system: Klebsiella pneumoniae; test: microbe, parasite or virus in culture; format: cell-based; conditions: control agents of Table 8
[2] = system: Acinetobacter baumannii; test: microbe, parasite or virus in culture; format: cell-based; conditions: A. baumanni (ATCC BAA-747); control agents of Table 8
[3] = system: Escherichia coli; test: microbe, parasite or virus in culture; format: cell-based; conditions: control agents of Table 8
Outline: (§1)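 Read-out is the minimal inhibitory concentration of each peptide, measured in serum-supplemented CAA.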

[4] = system: Enterobacter cloacae; test: microbe, parasite or virus in culture; format: cell-based; conditions: E. cloacae (CCUG 63317); control agents of Table 8
Outline: as §1

[5] = system: P. aeruginosa strain PAO1; test: MIC against PAO1 in Mueller-Hinton broth with 50% human plasma or human serum; format: cell-based, Pseudomonas aeruginosa; conditions: PAO1
[6] = system: eight different strains of five species of Gram-negative bacteria; test: MBEC in eight strains of five species of Gram-negative bacteria; format: cell-based; conditions: 24 h biofilm in LB, 16 h treatment
Description: Determination of Minimal Biofilm Eradicating Concentrations (MBEC). […] The OD600 of extracted crystal violet was determined. The MBEC value of each sample was determined as the minimum drug concentration required to remove >95% of biofilm biomass as assessed by crystal violet quantitation (in comparison to untreated controls).
MBEC values were likewise determined for Chp2, Chp2-M1, and Chp10-M1 in eight different strains of five species of Gram-negative bacteria. […] The films were then washed and stained with crystal violet to visualize the MBEC.

[7] = system: LPS; test: Endotoxin neutralization, limulus amoebocyte lysate (LAL) enzyme assay, LPS binding; format: biochemical; conditions: LPS 0.8 EU/mL
Description: CHEM. […] The standard reference samples contained only LPS dissolved in pyrogen-free water. Solutions were mixed well and incubated at 24° C. for 1 hour, and the manufacturers' test procedure for quantitative detection of endotoxins was followed.

[8] = system: Pseudomonas aeruginosa; test: microbe, parasite or virus in culture; format: cell-based; conditions: P. aeruginosa (ATCC 27853); control agents of Table 8
[9] = system: Stenotrophomonas-containing biofilm on explanted hemodialysis catheters; test: Antibiofilm activity in explanted hemodialysis catheters; format: cell-based, Stenotrophomonas spp.
Description: The explanted hemodialysis catheters were cut into equal length segments and bisected to expose the lumen.
The samples were treated for 4 hours at 37° C. before rinsing with Lactated Ringer's solution.
Three additional infected hemodialysis catheter samples were removed from two patients (one catheter from a first patient and two catheters from a second patient). […] The samples were incubated at 37° C. for 4 hours.

[10] = system: carbapenem-resistant bacterial strains; test: organism not typed; format: cell-based; conditions: carbapenem-resistant isolate PA23
Description: Determination of Minimal Inhibitory Concentrations (MIC).

[11] = system: Acinetobacter baumannii strain 30; test: Checkerboard assay (FICI) with antibiotics, A. baumannii; format: cell-based; conditions: checkerboard
Description: (§2) Checkerboard assays. […] Checkerboards were constructed by first preparing columns of a 96-well polypropylene microtiter plate, in which each well had the same amount of antibiotic diluted 2-fold along the horizontal axis. […] Summation fractional inhibitory concentration index (FICIs) were calculated for each drug and the minimum FICI was used to determine synergy. FICIs were calculated as follows: FICI=FIC A+FIC B, where FIC A is the MIC of each antibiotic in the combination/MIC of the each antibiotic alone, and FIC B is the MIC of each Chp peptide in the combination/MIC of each Chp peptide alone. The combination is considered synergistic when the FICI is ≤0.5, strongly additive when the FICI is >0.5 to <1, additive with the FICI is 1-<2, and antagonistic when the FICI is ≥2.
The results are shown below in Tables 22-27.

[12] = system: Klebsiella pneumoniae strain 1139; test: Checkerboard assay (FICI) with antibiotics, K. pneumoniae; format: cell-based
Description: as §2

[13] = system: P. aeruginosa strain CFS-1292; test: Checkerboard assay (FICI) with antibiotics, P. aeruginosa; format: cell-based, Pseudomonas aeruginosa; conditions: for Antibiotic FIC: P. aeruginosa CFS-1292; for Antibiotic MIC in checkerboard: P. aeruginosa CFS-1292, CAA + […] human serum
Description: Any known method to assess MIC may be used.
Checkerboards are constructed by first preparing columns of e.g., a 96-well polypropylene microtiter plate, wherein each well has the same amount of antibiotic diluted 2-fold along the horizontal axis. […] Bacteria are added to the drug combinations at concentrations of 1×10^5 […] in CAA, for example, with or without human serum or pulmonary surfactant. […] Summation fractional inhibitory concentrations (ΣFICs) are calculated for each drug and the minimum ΣFIC value (ΣFICmin) is used to determine the effect of the Chp peptide/antibiotic combination.
as §2
In the checkerboard assay, fractional inhibitory concentration index (FICI) values are calculated.

[14] = checkerboard, in combination with Chp4-M1
[15] = checkerboard, in combination with Chp6-M1
[16] = checkerboard, in combination with Chp10-M1

## LL-37 [reference compound]
[1]; K. pneumoniae (ATCC 700603)
  MIC (in brackets beside MBEC): (16) μg/mL
[1]; K. pneumoniae (KP1)
  MIC (in brackets beside MBEC): (16) μg/mL
[2]
  MIC (in brackets beside MBEC): (16) μg/mL
[3]; E. coli (ATCC 25922)
  MIC (in brackets beside MBEC): (16) μg/mL
[3]; E. coli (ATCC 35329)
  MIC (in brackets beside MBEC): (16) μg/mL
[3]; E. coli (EC2)
  MIC (in brackets beside MBEC): (16) μg/mL
[4]
  MIC (in brackets beside MBEC): (16) μg/mL
[5]; Mueller-Hinton broth with 50% human plasma
  Minimal inhibitory concentration, Human Plasma: >64 mg/L
[5]; Mueller-Hinton broth with human serum
  Minimal inhibitory concentration, Human Serum: >64 mg/L
[6]; A. baumanni (ATCC BAA-747)
  MBEC: 0.25 µg/mL
[6]; E. cloacae (CCUG 63317)
  MBEC: 8 µg/mL
[6]; E. coli (ATCC 25922)
  MBEC: 16 µg/mL
[6]; E. coli (ATCC 35329)
  MBEC: 16 µg/mL
[6]; E. coli (EC2)
  MBEC: 8 µg/mL
[6]; K. pneumoniae (ATCC 700603)
  MBEC: 32 µg/mL
[6]; K. pneumoniae (KP1)
  MBEC: 16 µg/mL
[6]; P. aeruginosa (ATCC 27853)
  MBEC: 8 µg/mL
[7]; […]-64 μg/mL, 24° C., 1 hour
  LPS binding: dose-dependent increases in LPS binding
[7]; peptide concentration 0.5 μg/mL
  % LPS Bound: 90.6%
[7]; peptide concentration 1 μg/mL
  % LPS Bound: 92.2%
[7]; peptide concentration 2 μg/mL
  % LPS Bound: 92.9%
[7]; peptide concentration 4 μg/mL
  % LPS Bound: 92.3%
[7]; peptide concentration 8 μg/mL
  % LPS Bound: 92.4%
[7]; peptide concentration 16 μg/mL
  % LPS Bound: 92.1%
[7]; peptide concentration 32 μg/mL
  % LPS Bound: 87.3%
[7]; peptide concentration 64 μg/mL
  % LPS Bound: 75.4%
[8]
  MIC (in brackets beside MBEC): (16) μg/mL

## daptomycin
[9]; first catheter sample, 4 hours at 37° C., Chp2-M1 10 μg/mL, CF-301 and daptomycin 1 μg/mL
  eradication of catheter biofilm: did not
[9]; treatment at 1 μg/mL
  Log10 CFU/g for Catheter Sample #2 enumerated after 24 hours of incubation at 37 °C.: 3.72 Log10 CFU/g
  Log10 CFU/g for Catheter Sample #3 enumerated after 24 hours of incubation at 37 °C.: 4.15 Log10 CFU/g
[9]; treatment at 1 μg/mL, 4 hours at 37° C.
  Log10 CFU/g for Catheter Sample #1 (enumerated after 18 hours of incubation at 37 °C.): 3.66 Log10 CFU/g

## C[C@@H](O)[C@H]1C(=O)N2C(C(=O)O)=C(S[C@@H]3CN[C@H](C(=O)N(C)C)C3)[C@H](C)[C@H]12 [meropenem, reference compound]
[10]
  MIC: 8 mg/L (≈ 20.9 µM)
[9]; Chp2-M1 1 μg/mL and 10 μg/mL, meropenem 1 μg/mL
  eradication of biofilm on three additional catheter samples: did not eliminate biofilm
[9]; second catheter sample from the second patient, 1 μg/mL, 4 hours
  log10 CFU/g: 3.16 log10 CFU/g
[11]; in combination with Chp2
  Antibiotic FIC: 0.25
[11]; in combination with Chp2-M1
  Antibiotic FIC: 0.25
[11]; in combination with Chp4-M1
  Antibiotic FIC: 0.25
[11]; in combination with Chp6-M1
  Antibiotic FIC: 0.25
[11]; in combination with Chp10-M1
  Antibiotic FIC: 0.125
[11]; in combination with Unp2-M1
  Antibiotic FIC: 0.25
[12]; [14]
  Antibiotic FIC: 0.125
  Antibiotic MIC: 0.007812 mg/L
[12]; [15]
  Antibiotic FIC: 0.25
  Antibiotic MIC: 0.01562 mg/L
[12]; [16]
  Antibiotic FIC: 0.125
  Antibiotic MIC: 0.01562 mg/L
[12]; checkerboard, in combination with Unp2-M1
  Antibiotic FIC: 0.03125
[12]; combined with Chp2
  Antibiotic FIC: 0.25
  Antibiotic MIC in checkerboard: 0.01562 mg/L
[12]; combined with Chp2-M1
  Antibiotic FIC: 0.25
  Antibiotic MIC in checkerboard: 0.01562 mg/L
[13]; combined with Chp2-M1
  Antibiotic FIC: 0.25
  Antibiotic MIC in checkerboard: 4 mg/L
[13]; combined with Chp2
  Antibiotic FIC: 0.25
  Antibiotic MIC in checkerboard: 4 mg/L
[13]; combined with Chp4-M1
  Antibiotic FIC: 0.25
  Antibiotic MIC in checkerboard: 4 mg/L
[13]; combined with Chp6-M1
  Antibiotic FIC: 0.25
  Antibiotic MIC in checkerboard: 4 mg/L
[13]; combined with Chp10-M1
  Antibiotic FIC: 0.25
  Antibiotic MIC in checkerboard: 2 mg/L
[13]; combined with Unp2-M1
  Antibiotic FIC: 0.25
  Antibiotic MIC in checkerboard: 4 mg/L
